Experimental data as given in ChEMBL document CHEMBL1667742, “Angiotensin II receptor type 1 (AT1) selective nonpeptidic antagonists--a perspective” (Bioorg Med Chem, 2010).
Residue numbers refer to the chain shown, from its start.

What was measured:
[1] = biological target: T1, Type-1 angiotensin II receptor (Homo sapiens, UniProt P30556); assay: Antagonist activity at angiotensin AT1 receptor; assay type: functional; conditions: for Kb: read-out: pA2 (converted)
T1 sequence (P30556 whole entry): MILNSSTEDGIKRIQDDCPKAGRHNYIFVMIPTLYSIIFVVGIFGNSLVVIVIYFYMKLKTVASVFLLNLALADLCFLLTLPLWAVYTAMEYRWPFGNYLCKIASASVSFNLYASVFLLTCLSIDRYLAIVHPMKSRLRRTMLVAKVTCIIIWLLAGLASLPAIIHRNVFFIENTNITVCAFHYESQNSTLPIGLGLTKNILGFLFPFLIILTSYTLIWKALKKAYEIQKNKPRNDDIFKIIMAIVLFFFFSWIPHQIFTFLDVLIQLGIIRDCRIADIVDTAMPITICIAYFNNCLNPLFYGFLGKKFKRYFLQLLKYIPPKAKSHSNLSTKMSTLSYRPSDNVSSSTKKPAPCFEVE

[2] = biological target: T1, Type-1 angiotensin II receptor; assay: Binding affinity to angiotensin AT1 receptor
[3] = Binding affinity to angiotensin AT1 receptor in rat adrenal cortical membranes; assay type: cell membranes
[4] = Antagonist activity at angiotensin AT1 receptor in rat aorta; assay type: functional, tissue-based
[5] = biological target: T2, Type-2 angiotensin II receptor (Homo sapiens, UniProt P50052); assay: Binding affinity to angiotensin AT2 receptor
T2 sequence (P50052 whole entry): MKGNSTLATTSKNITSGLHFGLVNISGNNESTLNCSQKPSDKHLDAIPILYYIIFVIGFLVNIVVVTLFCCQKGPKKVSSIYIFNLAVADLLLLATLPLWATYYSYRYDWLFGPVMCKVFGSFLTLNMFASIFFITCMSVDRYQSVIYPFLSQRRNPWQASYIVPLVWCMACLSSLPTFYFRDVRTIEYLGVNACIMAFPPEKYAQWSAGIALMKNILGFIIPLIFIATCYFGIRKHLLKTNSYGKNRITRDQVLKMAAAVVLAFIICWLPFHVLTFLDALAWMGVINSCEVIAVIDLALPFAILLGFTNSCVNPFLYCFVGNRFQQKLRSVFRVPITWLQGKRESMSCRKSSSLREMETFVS

[6] = biological target: T3, Type-1 angiotensin II receptor (Oryctolagus cuniculus, UniProt P34976); assay: (§1) Antagonist activity at angiotensin AT1 receptor in rabbit aorta; assay type: functional, tissue-based; conditions: read-out: pA2 (converted)
T3 sequence (P34976 whole entry): T1 sequence (P30556 whole entry) with I2M, V49A, I254V, I270V, R272H, R311K, T349S, A353V

[7] = Antagonist activity at angiotensin AT1 receptor in rat liver membranes; assay type: functional, cell membranes, Membrane
[8] = Displacement of radiolabeled angiotensin2 from angiotensin AT1 receptor in rat adrenal cortex membranes; assay type: cell membranes, Membrane
Rattus norvegicus [9] = assay: Ratio of compound ED50 to losartan ED50 for po dosed renal hypertensive rat model; assay type: functional
[10] = biological target: T4, Type-1 angiotensin II receptor (Bos taurus) (UniProt P25104); assay: Binding affinity to angiotensin AT1 receptor in bovine adrenal cortex membranes; assay type: cell membranes; conditions: Membrane
T4 sequence (whole entry): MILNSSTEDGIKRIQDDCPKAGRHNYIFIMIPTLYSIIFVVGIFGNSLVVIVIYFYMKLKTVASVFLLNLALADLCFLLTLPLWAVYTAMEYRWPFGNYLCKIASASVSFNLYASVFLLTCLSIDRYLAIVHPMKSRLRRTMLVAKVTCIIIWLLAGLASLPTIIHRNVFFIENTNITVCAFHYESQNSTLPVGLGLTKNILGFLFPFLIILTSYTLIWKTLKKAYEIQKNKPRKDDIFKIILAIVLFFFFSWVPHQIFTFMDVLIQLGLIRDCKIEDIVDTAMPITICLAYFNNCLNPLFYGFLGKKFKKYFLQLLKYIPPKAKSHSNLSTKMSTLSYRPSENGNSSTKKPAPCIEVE

[11] = biological target: T3, Type-1 angiotensin II receptor; assay: Antagonist activity at angiotensin AT1 receptor in rabbit aortic strip assessed as inhibition of angiotensin 2-induced contractile response; assay type: functional
Rattus norvegicus [12] = assay: Antihypertensive activity in po dosed conscious rat; assay type: functional; conditions: read-out: ID50 (the source's name)
Rattus norvegicus [13] = assay: Antihypertensive activity in iv dosed renal hypertensive rat model; assay type: functional
[14] = Selectivity ratio of IC50 for angiotensin AT1 receptor to IC50 for angiotensin AT2 receptor
[15] = biological target: T5, Type-1 angiotensin II receptor (Oryctolagus cuniculus) (UniProt P34976); assay: as §1; assay type: functional, tissue-based
T5 sequence (whole entry): T1 sequence (P30556 whole entry) with I2M, V49A, I254V, I270V, R272H, R311K, T349S, A353V

[16] = Binding affinity to angiotensin AT1 receptor in rat liver membranes; assay type: cell membranes, Membrane
[17] = biological target: T3, Type-1 angiotensin II receptor; assay: Antagonist activity at angiotensin AT1 receptor in rabbit aorta assessed as reduction of angiotensin 2-induced contractile response; assay type: functional, tissue-based; conditions: read-out: pA2 (converted)
[18] = Antagonist activity at angiotensin AT1 receptor in rat adrenal cortical membranes; assay type: functional, cell membranes
[19] = Oral bioavailability in rat; assay type: ADME, organism-based; conditions: in vivo

CCCCc1cn(CCCC)c(=O)n1Cc1ccc(-c2ccccc2-c2nnn[nH]2)cc1 [SC-51895]
Kb [1]: 2.24 nM
IC50 [2]: 12 nM

CCCCc1c(Cc2ccc(-c3ccccc3-c3nn[nH]n3)cc2)[n+]([O-])c2ccccc2[n+]1[O-]
Ki [3]: 2.6 nM
Kb [4]: 2.1 nM

CCCCc1nc2ccccc2[n+]([O-])c1Oc1ccc(-c2ccccc2-c2nn[nH]n2)cc1
Ki [5]: 4.5 nM

CCc1nc2c(CC)cn(Cc3ccc(-c4ccccc4-c4nn[nH]n4)cc3)n2n1
Kb [6]: 1.51 nM

CCCCc1cn([C@H]2[C@H](C)CCC[C@@H]2C)c(=O)n1Cc1ccc(-c2ccccc2-c2nnn[nH]2)nc1 [SC-55634]
Kb [1]: 0.501 nM
IC50 [2]: 4.9 nM

CCc1cc(Sc2ccc(-c3ccccc3-c3nn[nH]n3)cc2)c2ncccc2n1
IC50 [7]: 20 nM

CCCCc1nc2cccnc2n1Cc1ccc(-n2cccc2-c2nnn[nH]2)cc1
Kb [6]: 3.55 nM
IC50 [4]: 0.6 nM

CCCCc1nc(Cc2ccc(-c3ccccc3-c3nnn[nH]3)cc2)n(CCCC)n1
Kb [1]: 3.16 nM
IC50 [2]: 16 nM

CCCCc1nc(Cl)c2n1C(c1ccc(-c3ccccc3-c3nnn[nH]3)cc1)CC(C(=O)O)=C2 (centres undefined)
IC50 [5]: 10 nM

CCc1cc(OCc2ccc(-c3ccccc3-c3nnn[nH]3)cc2)c2c(n1)CCCC2
Kb [6]: 0.0501 nM

CCCc1nc2c(n1Cc1ccc(-c3ccccc3-c3nnn[nH]3)cc1)C(=O)CCCC2 [PRATOSARTAN]
Kb [6]: 0.0912 nM

CCCCc1nc(CCCC)n(Cc2ccc(-c3ccccc3-c3nnn[nH]3)cc2)n1
Kb [1]: 2 nM
IC50 [2]: 5.6 nM

CCCc1nc(CC)c(C(=O)O)n1Cc1ccc(-c2ccccc2-c2nn[nH]n2)cc1
IC50 [8]: 6 nM
Ratio ED50 (Rattus norvegicus [9]): 20

C[C@@H]1CN(Cc2ccc(-c3ccccc3-c3nn[nH]n3)cc2)C[C@H](C)O1
Kb [1]: 126 nM

CCCCCCC(C(=O)O)n1cnc(NC(=O)c2cccc(O)c2C(=O)O)c1 (centres undefined)
Kb [6]: 100 nM

CCCCc1nc2ccc([C@]3(C)C[C@H]4CCCN4O3)cc2c(=O)n1Cc1ccc(-c2ccccc2-c2nn[nH]n2)cc1
Kb [1]: 0.0126 nM

CCOc1nc2cccc(C(=O)O)c2n1Cc1ccc(-c2ccccc2-c2nsc(O)n2)cc1
Activity [10]: 2.5 nM

CCCCc1nc2cccc(C(=O)O)c2n1Cc1ccc(-c2ccccc2-c2nnn[nH]2)cc1
IC50 [11]: 0.055 nM

CCc1nc2c(C)cc(C)nc2n1Cc1ccc(-c2ccccc2S(=O)(=O)NC(=O)c2ccccc2)cc1
Kb [6]: 0.0501 nM

CCOc1nc2cccc(C(=O)O)c2n1Cc1ccc(-c2ccccc2-c2noc(=O)[nH]2)cc1 [AZILSARTAN]
Activity [10]: 4.2 nM
ED50 (Rattus norvegicus [12]): 0.04 mg/kg

CCCc1nc2ccccc2n1C(F)(F)C(O)c1ccc(-c2ccccc2-c2nnn[nH]2)cc1 (centres undefined)
ED30 (Rattus norvegicus [13]): 2 mg/kg
Ki [2]: 29 nM
Ki [5]: 480 nM

CCCCc1nc2ccc(C(C)(C)OC)cc2c(=O)n1Cc1ccc(-c2ccccc2-c2nn[nH]n2)cc1 [CL-329167]
Kb [6]: 9.77 nM
Kb [1]: 0.0126 nM
IC50 [2]: 6 nM

CCCc1nc(C)n2[nH]c(=O)nc2c1Cc1ccc(-c2ccccc2-c2nnn[nH]2)cc1
Ki [2]: 24 nM

CCCCc1nc2ccn(CC(=O)N3CCCCC3)c(=O)c2n1Cc1ccc(-c2ccccc2S(=O)(=O)NC(=O)OCc2ccccc2)cc1F
IC50 [2]: 4.7 nM
IC50 [5]: 3.5 nM
Ratio IC50 [14]: 0.74

CCCSC1=NS(=O)(=O)c2ccc(C(=O)O)cc2N1Cc1ccc(-c2ccccc2-c2nn[nH]n2)cc1
Kb [15]: 0.08 nM
Ki [3]: 8.5 nM

CCCc1nc(CC)c(C=O)n1Cc1ccc(-c2ccccc2-c2nn[nH]n2)cc1
IC50 [8]: 2.1 nM

CCCc1nc(C(F)(F)C(F)(F)F)c(C(=O)O)n1Cc1ccc(-c2ccccc2-c2nn[nH]n2)cc1
IC50 [8]: 3.1 nM

CCc1nc2ccc(NC(=O)N(C)C(C)C)cc2c(=O)n1Cc1ccc(-c2ccccc2S(=O)(=O)NC(=O)OCCC2CC2)cc1F
Ratio IC50 [14]: 2

CCc1nc2c(n1Cc1ccc(-c3ccccc3-c3nn[nH]n3)cc1)/C(=C/C(=O)O)CCCC2
pD2 [15]: 9.91
IC50 [16]: 5.5 nM

CCCCC(=O)N(Cc1ccc(-c2ccccc2-c2nnn[nH]2)cc1)[C@H](C(=O)O)C(C)C
IC50 [4]: 2.7 nM

CCCCCc1nc(SCc2ccc(-c3ccccc3C(=O)O)cc2)nn1Cc1ccc(-c2ccccc2C(=O)O)cc1
Kb [17]: 3.98 nM

CCCCC1=NC(Cl)=C(C(=O)O)C(C)N1Cc1ccc(-c2ccccc2-c2nnn[nH]2)cc1 (centres undefined)
Ki [2]: 1 nM

Cc1nc(Sc2ccc(-c3ccccc3-c3nn[nH]n3)cc2)c2ccccc2n1
IC50 [7]: 350 nM

CCc1nn(Cc2ccc(-c3ccccc3-c3nn[nH]n3)cc2)/c(=N/C(=O)C2=C(C(=O)[O-])CCC2)s1.[K+]
IC50 [1]: 0.4 nM
Ratio ED50 (Rattus norvegicus [9]): 10

CCc1nc2c(C)cc(C)nc2n1Cc1ccc(-c2c(-c3nn[nH]n3)cnc3ccccc23)cc1
IC50 [16]: 0.4 nM

CCCCc1nc2cccnc2n1-c1ccc(CCO/C(O)=C2\C(C(C)C)=NC(C)=C(C(=O)Nc3cccnc3)C2c2ccccc2Cl)cc1 (centres undefined)
IC50 [18]: 0.6 nM

CCCCc1nc(Cl)c2n1C(c1ccc(-c3ccccc3-c3nnn[nH]3)cc1)CC=C2C(=O)O (centres undefined)
IC50 [5]: 50 nM

CCOc1nc2cccc(C(=O)OC(C)OC(=O)OC3CCCCC3)c2n1Cc1ccc(-c2ccccc2-c2nnn[nH]2)cc1 (centres undefined) [CANDESARTAN CILEXETIL]
bioavailability [19]: 28%
IC50 [11]: 200 nM
ED50 (Rattus norvegicus [12]): 0.06 mg/kg

CCc1nc2ccc(N(Cc3ccccc3)C(=O)c3cccs3)cc2c(=O)n1Cc1ccc(-c2ccccc2-c2nn[nH]n2)cc1
Ratio IC50 [14]: 3000

COc1c(OCc2ccc(-c3ccccc3-c3nn[nH]n3)cc2)cc(C)nc1C
Kb [17]: 1.51 nM
pKi [16]: 8.7

Cc1ccnc2c1nc(C1CC1)n2Cc1ccc(-c2ccccc2C(=O)O)cc1
Kb [6]: 2 nM
IC50 [3]: 52 nM

CCCCc1cn(CCCC)c(=O)n1Cc1ccc(-c2ccccc2-c2nnn[nH]2)nc1 [SC-52892]
Kb [1]: 2.09 nM
IC50 [2]: 6.5 nM

CCCCc1nnc(SCc2ccccc2C(=O)O)n1Cc1ccc(-c2ccccc2-c2nn[nH]n2)cc1
IC50 [2]: 1.4 nM

CCCc1cc(=O)n(CC(=O)N(C)C)c(=O)n1Cc1ccc(-c2ccccc2-c2nn[nH]n2)cc1
Activity [10]: 9.3 nM
IC50 [18]: 0.65 nM

CCCCc1nc(C)n(Cc2sccc2C(=O)OC)c(=O)c1Cc1ccc(-c2ccccc2-c2nnn[nH]2)cc1
Ki [3]: 0.9 nM

CCc1cc(OCc2ccc(-c3ccccc3-c3nnn[nH]3)cc2)c2ccccc2n1
Kb [6]: 5.01 nM
